Earlier results in patent US20260048005A1, “INJECTABLE THERMOSENSITIVE HYDROGELS FOR A SUSTAINED RELEASE OF IRON NANOCHELATORS” (The General Hospital Corporation, priority 2022, published 2026).

Conditions: in rodents

- half-life: 5 to 15 min
SMILES: CC(=O)N(O)CCCCCNC(=O)CCC(=O)N(O)CCCCCNC(=O)CCC(=O)N(O)CCCCCN [DFO, deferoxamine]
